How the values were obtained:
Format in all cases: in vivo
Cyperus difformis = experiment: Test Example 3: herbicidal effect by foliage application, Wagner pot (symbol E); details: application herbicide amount 320 g/ha
Outline: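 In a shallow-flooded alluvial soil system held at 25–30 °C, plants including rice grew for 14 days and were then sprayed over the foliage with emulsion diluted to a fixed herbicide amount. Visual rating followed at 3 weeks.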

Amaranthus retroflexus = experiment: Test Example 5: herbicidal effect by foliage application, plastic box (symbol N); details: 320 g/ha, 3 weeks after application
Outline: (§1)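 Visual herbicidal score, taken three weeks post-application, of seedlings sprayed on the foliage with water-diluted emulsion at a predetermined amount; plants were 14 days old, greenhouse-raised at 25° C. to 30° C.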

Alopecurus myosuroides [1] = experiment: Test Example 4: herbicidal effect by soil treatment (symbol J); details: application herbicide amount 320 g/ha
Outline: (§2)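 Seeds were sown in sterilized diluvial soil, covered with about 1.5 cm of soil, and the soil surface was sprayed with a water-diluted emulsion of the compound at a predetermined rate. Plants grew in a greenhouse at 25° C. to 30° C.; effects were scored visually 3 weeks after application.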

beet = experiment: Test Example 4: effect on crop by soil treatment (symbol f); details: application herbicide amount 320 g/ha
Outline: (§3)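 Seeds were sown in spots on sterilized diluvial soil in a plastic box and covered with about 1.5 cm of soil. Plants were then grown in a greenhouse at 25° C. to 30° C.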

wheat [2] = experiment: Test Example 4: effect on crop by soil treatment (symbol e); details: application herbicide amount 320 g/ha
Outline: as §3

[3] = tested on: Echinochloa crus-galli var. crus-galli; experiment: Test Example 4: herbicidal effect by soil treatment (symbol H); details: application herbicide amount 320 g/ha
Outline: as §2

soybean = experiment: Test Example 4: effect on crop by soil treatment (symbol d); details: application herbicide amount 320 g/ha
Outline: as §3

wheat [4] = experiment: Test Example 5: effect on crop by foliage application, plastic box (symbol e); details: 320 g/ha, 3 weeks after application
Outline: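 Foliage-application test plants come from spot sowing in sterilized diluvial soil under a soil layer of about 1.5 cm, grown at 25° C. to 30° C. in a greenhouse.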

[5] = tested on: Echinochloa oryzacola Vasing.; experiment: Test Example 2: herbicidal activity, application during weed generation in submerged conditions (symbol A); details: Table 23; application herbicide amount 320 g/ha; grade 0-5 by criteria of Test Example 1
Outline: (§4)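 Compound was applied as a water-diluted emulsion into the standing water of flooded pots (4 cm) once co-sown weeds reached one to two leaves. Greenhouse temperature was 25° C. to 30° C., soil was alluvial, and each species was rated visually after 3 weeks.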

[6] = tested on: Echinochloa oryzacola Vasing.; experiment: Test Example 1: herbicidal activity, application before weed generation in submerged conditions (symbol A); details: application herbicide amount 320 g/ha
Outline: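 Flooded alluvial soil (4 cm water) was mixed-sown with the three weed species, and 2.5-leaf rice seedlings were transplanted. On sowing day, a water-diluted emulsion at a predetermined rate was applied to the water surface. After 3 weeks in a 25–30 °C greenhouse, effect was scored 0–5.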

Alopecurus myosuroides [7] = experiment: Test Example 5: herbicidal effect by foliage application, plastic box (symbol J); details: 320 g/ha, 3 weeks after application
Outline: as §1

Monochoria vaginalis = experiment: Test Example 2: herbicidal activity, application during weed generation in submerged conditions (symbol C); details: Table 23; application herbicide amount 320 g/ha; grade 0-5 by criteria of Test Example 1
Outline: as §4

## C=CCON=C(C)CC1CC(O)=C(c2c(C)cc(C)cc2C)C1=O (stereo not drawn) [1-018]
Cyperus difformis
  herbicidal effect on E, grade 0-5: 3 (Herbicidal ratio of 40% or higher and lower than 70%)
Amaranthus retroflexus
  N: Amaranthus retroflexus, herbicidal effect grade: 0 (Herbicidal ratio of 5% or lower (almost no effect))
Alopecurus myosuroides [1]
  J (Alopecurus myosuroides) herbicidal effect grade: 5 (Herbicidal ratio of 90% or more (almost completely withered))
beet
  f (beet) effect on crop grade: 0 (Herbicidal ratio of 5% or lower (almost no effect))
Wheat [2]
  e (wheat) effect on crop grade: 4 (Herbicidal ratio of 70% or higher and lower than 90%)
[3]
  H (Echinochloa crus-galli var. crus-galli) herbicidal effect grade: 5 (Herbicidal ratio of 90% or more (almost completely withered))
soybean
  d (soybean) effect on crop grade: 0 (Herbicidal ratio of 5% or lower (almost no effect))
Wheat [4]
  e: wheat, effect on crop grade: 5 (Herbicidal ratio of 90% or more (almost completely withered))
[5]
  Herbicidal effect grade, A: Echinochloa oryzacola Vasing.: 5 (Herbicidal ratio of 90% or more (almost completely withered))
[6]
  Herbicidal effect grade, A: Echinochloa oryzacola Vasing.: 5 (Herbicidal ratio of 90% or more (almost completely withered))
Alopecurus myosuroides [7]
  J: Alopecurus myosuroides, herbicidal effect grade: 5 (Herbicidal ratio of 90% or more (almost completely withered))
Monochoria vaginalis
  Herbicidal effect grade, C: Monochoria vaginalis: 3 (Herbicidal ratio of 40% or higher and lower than 70%)

## C#CCON=C(C)CC1CC(O)=C(c2c(C)cc(C)cc2C)C1=O (stereo not drawn) [1-019]
Cyperus difformis
  herbicidal effect on E, grade 0-5: 5 (Herbicidal ratio of 90% or more (almost completely withered))
Amaranthus retroflexus
  N: Amaranthus retroflexus, herbicidal effect grade: 2 (Herbicidal ratio of 20% or higher and lower than 40%)
Alopecurus myosuroides [1]
  J (Alopecurus myosuroides) herbicidal effect grade: 5 (Herbicidal ratio of 90% or more (almost completely withered))
beet
  f (beet) effect on crop grade: 0 (Herbicidal ratio of 5% or lower (almost no effect))
Wheat [2]
  e (wheat) effect on crop grade: 3 (Herbicidal ratio of 40% or higher and lower than 70%)
[3]
  H (Echinochloa crus-galli var. crus-galli) herbicidal effect grade: 5 (Herbicidal ratio of 90% or more (almost completely withered))
soybean
  d (soybean) effect on crop grade: 3 (Herbicidal ratio of 40% or higher and lower than 70%)
Wheat [4]
  e: wheat, effect on crop grade: 5 (Herbicidal ratio of 90% or more (almost completely withered))
[5]
  Herbicidal effect grade, A: Echinochloa oryzacola Vasing.: 5 (Herbicidal ratio of 90% or more (almost completely withered))
[6]
  Herbicidal effect grade, A: Echinochloa oryzacola Vasing.: 5 (Herbicidal ratio of 90% or more (almost completely withered))
Alopecurus myosuroides [7]
  J: Alopecurus myosuroides, herbicidal effect grade: 5 (Herbicidal ratio of 90% or more (almost completely withered))
Monochoria vaginalis
  Herbicidal effect grade, C: Monochoria vaginalis: 2 (Herbicidal ratio of 20% or higher and lower than 40%)

## CON=C(C)C(C(C)=NOC)C1CC(O)=C(c2c(C)cc(C)cc2C)C1=O (stereo not drawn) [1-021]
Cyperus difformis
  herbicidal effect on E, grade 0-5: 0 (Herbicidal ratio of 5% or lower (almost no effect))
Amaranthus retroflexus
  N: Amaranthus retroflexus, herbicidal effect grade: 0 (Herbicidal ratio of 5% or lower (almost no effect))
Alopecurus myosuroides [1]
  J (Alopecurus myosuroides) herbicidal effect grade: 0 (Herbicidal ratio of 5% or lower (almost no effect))
beet
  f (beet) effect on crop grade: 0 (Herbicidal ratio of 5% or lower (almost no effect))
Wheat [2]
  e (wheat) effect on crop grade: 0 (Herbicidal ratio of 5% or lower (almost no effect))
[3]
  H (Echinochloa crus-galli var. crus-galli) herbicidal effect grade: 0 (Herbicidal ratio of 5% or lower (almost no effect))
soybean
  d (soybean) effect on crop grade: 0 (Herbicidal ratio of 5% or lower (almost no effect))
Wheat [4]
  e: wheat, effect on crop grade: 0 (Herbicidal ratio of 5% or lower (almost no effect))
[5]
  Herbicidal effect grade, A: Echinochloa oryzacola Vasing.: 0 (Herbicidal ratio of 5% or lower (almost no effect))
[6]
  Herbicidal effect grade, A: Echinochloa oryzacola Vasing.: 0 (Herbicidal ratio of 5% or lower (almost no effect))
Alopecurus myosuroides [7]
  J: Alopecurus myosuroides, herbicidal effect grade: 3 (Herbicidal ratio of 40% or higher and lower than 70%)
Monochoria vaginalis
  Herbicidal effect grade, C: Monochoria vaginalis: 0 (Herbicidal ratio of 5% or lower (almost no effect))

## CC(CC1CC(O)=C(c2c(C)cc(C)cc2C)C1=O)=NOCc1ccccn1 (stereo not drawn) [1-022]
Cyperus difformis
  herbicidal effect on E, grade 0-5: 4 (Herbicidal ratio of 70% or higher and lower than 90%)
Amaranthus retroflexus
  N: Amaranthus retroflexus, herbicidal effect grade: 1 (Herbicidal ratio of 5% or higher and lower than 20%)
Alopecurus myosuroides [1]
  J (Alopecurus myosuroides) herbicidal effect grade: 5 (Herbicidal ratio of 90% or more (almost completely withered))
beet
  f (beet) effect on crop grade: 3 (Herbicidal ratio of 40% or higher and lower than 70%)
Wheat [2]
  e (wheat) effect on crop grade: 4 (Herbicidal ratio of 70% or higher and lower than 90%)
[3]
  H (Echinochloa crus-galli var. crus-galli) herbicidal effect grade: 5 (Herbicidal ratio of 90% or more (almost completely withered))
soybean
  d (soybean) effect on crop grade: 0 (Herbicidal ratio of 5% or lower (almost no effect))
Wheat [4]
  e: wheat, effect on crop grade: 5 (Herbicidal ratio of 90% or more (almost completely withered))
[5]
  Herbicidal effect grade, A: Echinochloa oryzacola Vasing.: 4 (Herbicidal ratio of 70% or higher and lower than 90%)
[6]
  Herbicidal effect grade, A: Echinochloa oryzacola Vasing.: 5 (Herbicidal ratio of 90% or more (almost completely withered))
Alopecurus myosuroides [7]
  J: Alopecurus myosuroides, herbicidal effect grade: 5 (Herbicidal ratio of 90% or more (almost completely withered))
Monochoria vaginalis
  Herbicidal effect grade, C: Monochoria vaginalis: 3 (Herbicidal ratio of 40% or higher and lower than 70%)

## COC(=O)CON=C(C)CC1CC(O)=C(c2c(C)cc(C)cc2C)C1=O (stereo not drawn) [1-023]
Cyperus difformis
  herbicidal effect on E, grade 0-5: 0 (Herbicidal ratio of 5% or lower (almost no effect))
Amaranthus retroflexus
  N: Amaranthus retroflexus, herbicidal effect grade: 0 (Herbicidal ratio of 5% or lower (almost no effect))
Alopecurus myosuroides [1]
  J (Alopecurus myosuroides) herbicidal effect grade: 0 (Herbicidal ratio of 5% or lower (almost no effect))
beet
  f (beet) effect on crop grade: 0 (Herbicidal ratio of 5% or lower (almost no effect))
Wheat [2]
  e (wheat) effect on crop grade: 0 (Herbicidal ratio of 5% or lower (almost no effect))
[3]
  H (Echinochloa crus-galli var. crus-galli) herbicidal effect grade: 3 (Herbicidal ratio of 40% or higher and lower than 70%)
soybean
  d (soybean) effect on crop grade: 0 (Herbicidal ratio of 5% or lower (almost no effect))
Wheat [4]
  e: wheat, effect on crop grade: 0 (Herbicidal ratio of 5% or lower (almost no effect))
[5]
  Herbicidal effect grade, A: Echinochloa oryzacola Vasing.: 4 (Herbicidal ratio of 70% or higher and lower than 90%)
[6]
  Herbicidal effect grade, A: Echinochloa oryzacola Vasing.: 4 (Herbicidal ratio of 70% or higher and lower than 90%)
Alopecurus myosuroides [7]
  J: Alopecurus myosuroides, herbicidal effect grade: 4 (Herbicidal ratio of 70% or higher and lower than 90%)
Monochoria vaginalis
  Herbicidal effect grade, C: Monochoria vaginalis: 0 (Herbicidal ratio of 5% or lower (almost no effect))

## CON=C(C)CC1CC(O)=C(c2c(C)cc(C3CC3)cc2C)C1=O (stereo not drawn) [6-050]
Cyperus difformis
  herbicidal effect on E, grade 0-5: 5 (Herbicidal ratio of 90% or more (almost completely withered))
Amaranthus retroflexus
  N: Amaranthus retroflexus, herbicidal effect grade: 0 (Herbicidal ratio of 5% or lower (almost no effect))
Alopecurus myosuroides [1]
  J: Alopecurus myosuroides, herbicidal effect grade: 4 (Herbicidal ratio of 70% or higher and lower than 90%)
beet
  f: beet, effect on crop grade: 0 (Herbicidal ratio of 5% or lower (almost no effect))
Wheat [2]
  e: wheat, effect on crop grade: 0 (Herbicidal ratio of 5% or lower (almost no effect))
[3]
  H: Echinochloa crus-galli var. crus-galli, herbicidal effect grade: 4 (Herbicidal ratio of 70% or higher and lower than 90%)
soybean
  d: soybean, effect on crop grade: 0 (Herbicidal ratio of 5% or lower (almost no effect))
Wheat [4]
  e: wheat, effect on crop grade: 0 (Herbicidal ratio of 5% or lower (almost no effect))
[5]
  Herbicidal effect grade, A: Echinochloa oryzacola Vasing.: 3 (Herbicidal ratio of 40% or higher and lower than 70%)
[6]
  Herbicidal effect grade, A: Echinochloa oryzacola Vasing.: 3 (Herbicidal ratio of 40% or higher and lower than 70%)
Alopecurus myosuroides [7]
  J: Alopecurus myosuroides, herbicidal effect grade: 5 (Herbicidal ratio of 90% or more (almost completely withered))
Monochoria vaginalis
  Herbicidal effect grade, C: Monochoria vaginalis: 0 (Herbicidal ratio of 5% or lower (almost no effect))

## CON=C(C)CC1CC(O)=C(c2c(C)cc(Oc3ccccc3)cc2C)C1=O (stereo not drawn) [6-052]
Cyperus difformis
  herbicidal effect on E, grade 0-5: 3 (Herbicidal ratio of 40% or higher and lower than 70%)
Amaranthus retroflexus
  N: Amaranthus retroflexus, herbicidal effect grade: 0 (Herbicidal ratio of 5% or lower (almost no effect))
Alopecurus myosuroides [1]
  J: Alopecurus myosuroides, herbicidal effect grade: 0 (Herbicidal ratio of 5% or lower (almost no effect))
beet
  f: beet, effect on crop grade: 0 (Herbicidal ratio of 5% or lower (almost no effect))
Wheat [2]
  e: wheat, effect on crop grade: 0 (Herbicidal ratio of 5% or lower (almost no effect))
[3]
  H: Echinochloa crus-galli var. crus-galli, herbicidal effect grade: 4 (Herbicidal ratio of 70% or higher and lower than 90%)
soybean
  d: soybean, effect on crop grade: 0 (Herbicidal ratio of 5% or lower (almost no effect))
Wheat [4]
  e: wheat, effect on crop grade: 0 (Herbicidal ratio of 5% or lower (almost no effect))
[5]
  Herbicidal effect grade, A: Echinochloa oryzacola Vasing.: 3 (Herbicidal ratio of 40% or higher and lower than 70%)
[6]
  Herbicidal effect grade, A: Echinochloa oryzacola Vasing.: 4 (Herbicidal ratio of 70% or higher and lower than 90%)
Alopecurus myosuroides [7]
  J: Alopecurus myosuroides, herbicidal effect grade: 4 (Herbicidal ratio of 70% or higher and lower than 90%)
Monochoria vaginalis
  Herbicidal effect grade, C: Monochoria vaginalis: 0 (Herbicidal ratio of 5% or lower (almost no effect))

— patent publication US11000033B2, “Ketone or oxime compound, and herbicide” (NISSAN CHEMICAL CORPORATION, priority 2014, dated 2021)
